Source: US20250387388A1, “COMPOUND AS TRK INHIBITOR AND/OR RET INHIBITOR AND USE THEREOF” (Medinno Pharmaceutical Technology (Zhuhai) Co., Ltd., priority 2022, published 2025)

Tests used:
TRKC = TRKC (Homo sapiens (Human), UniProt Q16288); experiment: Inhibitory activity on TRKC (ADP-Glo Kinase Assay)
[1] = system: diabetic foot animal model; experiment: Diabetic foot animal model (high-fat diet mice, back wound); assay type: in vivo, C57BL/6 male mice
Excerpt: Twenty 2-month-old normal wild-type C57BL/6 male mice were ordered from Jicai Pharmaceutical and divided into two groups of 10 each. One group was fed a standard diet (SD), and the other group was fed a 60% high-fat diet (HFD) to induce obesity. Both groups were fed under the same conditions for about 6 months. Additionally, five 2-month-old young male mice were ordered to perform subsequent wound modeling and comparison with the SD group (8 months old, 10 mice) and the HFD group (8 months old, 10 mice). Mice were anesthetized with isoflurane, and a razor was used to remove the back hair, exposing the back skin. A marker pen and ruler were used to draw a 1.0 cm×0.5 cm rectangular area on each side of the back. A sterilized surgical scissor was used to cut away the skin in this area without damaging the subcutaneous tissue. After the mice regained consciousness, they were carefully placed back in their cages. The animals were euthanized at specified time intervals after the injury, and the wound tissue was collected for subsequent experiments and analysis. After creating wounds on the left and right sides of the mouse's back, the mice were grouped and administered drugs as indicated in the table below (where Control represents a blank drug control with DMSO+vehicle). The 1228 gel (0.5% or 1%) was administered every 12 hours, with a dose of 50 mg each time. The wounds were photographed and weighed daily (every 24 hours) for 7 days, and then samples were collected at the 7th day. Specific operational details are described in the section “3. Sample Collection and Analysis” below. [table] After anesthesia, the mice were placed on an operation table with their backs extended, and high-definition photographs of the entire back and the local wound area of the mice were taken (including a ruler). […] The body weight of the mice was also measured to analyze the impact of the drug on systemic metabolism. On the seventh day of wound repair after modeling on the mouse's back, the mice were euthanized, and the wound tissue was collected for subsequent experiments and analysis, including tissue from the center of the wound and distal non-wounded control skin. The tissue was embedded in OCT and subjected to cryosectioning for subsequent HE or multiple staining analysis. Mouse skin tissue was placed in an embedding box filled with OCT (Tissue-Tek® O.C.T. Compound, Catalog #4583, Sakura Finetek USA Inc) and laid flat on dry ice to quick-freeze. Once the OCT was fully frozen, the embedding box was transferred to a −20° C. freezer for storage. Before sectioning, the cryostat was pre-cooled to −25° C. […] The flattened tissue sections were attached to glass slides and checked under a microscope for completeness. The sections were left to air-dry at room temperature for 2-3 hours before being stored in a −20° C. freezer. The sections were taken out of the −20° C. freezer and allowed to thaw at room temperature, and the condensation water was dried for 10-20 minutes until completely dry. The sections were then fixed with 500-1000 μL of frozen 4% paraformaldehyde (4% paraformaldehyde prepared by diluting 10 ml of 16% PFA—paraformaldehyde in 30 ml of frozen PBS and stored at 4° C.) for 10 minutes at room temperature. The sections were washed once with dH2O (single distilled water) (incubation<1 minute). After washing, hematoxylin solution was added, and the sections were incubated for 55-60 seconds, then quickly washed three times with running tap water until no blue dye was visible. Eosin solution was added next, and the sections were incubated for 25-30 seconds, then quickly washed three times with running tap water, followed by washing with 70% ethanol once. The sections were dehydrated in 100% ethanol for 5 minutes and then in xylene for 5 minutes. Finally, the sections were coverslipped with a neutral resin, taking care not to trap air bubbles when placing the coverslip with forceps. […]

[2] = system: ovalbumin-induced asthma model in mice; experiment: Ovalbumin-induced asthma model in mice; assay type: in vivo, Balb/c mice; conditions: nasal administration BID 5 days: MDI-1228 3 mg/kg, MDI-1288 3 mg/kg, MDI-1233 1, 3, 10 mg/kg; for Bronchoalveolar lavage fluid IL-5 expression level / Inflammatory cell count in bronchoalveolar lavage fluid / Lung tissue inflammatory cell infiltration (HE pathology) / Serum IgE expression level: vs. vehicle (model) group, dexamethasone 1 mg/kg gavage QD
Description: After 7 days of acclimatization, animals were randomly grouped based on their body weight. The experiment was divided into 8 groups, with 8 mice in each group, as detailed in the table below.
• Preparation of Immunogen: Weigh an appropriate amount of OVA, to which an appropriate amount of PBS was added, to achieve a final concentration of 0.1 mg/ml. Then, an equal volume of aluminum adjuvant was added, and the resulting mixture was mixed well, and stored at 4° C., which was prepared before use. • Preparation of Sensitizer (5% OVA): Weigh an appropriate amount of OVA, to which an appropriate amount of PBS was added, to achieve a final concentration of 5%. The resulting mixture was mixed well, and store it at 4° C. for later use, which was prepared before use. • Preparation of Vehicle: Add 200 μl of Tween 80 to 100 ml of saline, and mix it well. […] Mix it well, and store it at 4° C. for later use. […] Mix it well, and store it at 4° C. for later use. […] Mix it well, and store it at 4° C. for later use. The solution was prepared once every three days.
• Immunization: On days 0, 7, 14, and 21, 200 μl of PBS was injected intraperitoneally for the first group, and 200 μl of (10 μg) OVA/aluminum adjuvant emulsion was injected intraperitoneally for groups 2-8. • Sensitization: From days 28 to 32, the first group of animals was exposed to nebulized PBS in a nebulization box for 20 minutes, and the groups 2-8 were exposed to nebulized 5% OVA in a nebulization box for 20 minutes. And then, they were removed. The sensitization was conducted at 12:30 PM daily. • Administration: The medicine was administrated twice a day at 9 AM and 5 PM via nasal drops. Dexamethasone (Dex) was administered by gavage once a day at 9 AM.
Serum IgE: Blood was collected from the orbits of animals after carbon dioxide euthanasia, and plasma was separated and stored at −40 degrees for plasma IgE detection.
Bronchoalveolar Lavage Fluid (BALF) Cell Count: An appropriate amount of foetal bovine serum was weighted and dissolved in PBS to a final concentration of 1%. After orbital blood collection, the trachea was exposed, and a 1 ml syringe needle was replaced with a mouse gavage needle. 0.8 ml of the lavage fluid was aspirated from the syringe and the lungs were lavaged three times. The lavage fluids were collected, and centrifuged at 1000 rpm for 10 minutes, and the supernatant was collected and stored at −40 degrees Celsius. Cells were resuspended with 1 ml of PBS and counted. 100 ul of centrifuged smear was taken and stained with Diff quick and the number of eosinophils, basophils, lymphocytes and macrophages were recorded.
Bronchoalveolar Lavage Fluid IL-5: Bronchoalveolar lavage fluid was collected to detect IL-5.
Pathological scoring criteria were: • A) 0 points: No lymphocyte infiltration; • B) 1 point: Trace lymphocyte infiltration; • C) 2 points: Mild lymphocyte infiltration; • D) 3 points: Moderate lymphocyte infiltration; • E) 4 points: Severe lymphocyte infiltration; • After scoring, the results were calculated and analyzed.

RET = RET (Homo sapiens (Human), UniProt P07949); experiment: Inhibitory activity on RET kinase (HTRF KinEASE-TK); assay type: biochemical; conditions: ATP 16 μM
Chain of RET (P07949 29-1114): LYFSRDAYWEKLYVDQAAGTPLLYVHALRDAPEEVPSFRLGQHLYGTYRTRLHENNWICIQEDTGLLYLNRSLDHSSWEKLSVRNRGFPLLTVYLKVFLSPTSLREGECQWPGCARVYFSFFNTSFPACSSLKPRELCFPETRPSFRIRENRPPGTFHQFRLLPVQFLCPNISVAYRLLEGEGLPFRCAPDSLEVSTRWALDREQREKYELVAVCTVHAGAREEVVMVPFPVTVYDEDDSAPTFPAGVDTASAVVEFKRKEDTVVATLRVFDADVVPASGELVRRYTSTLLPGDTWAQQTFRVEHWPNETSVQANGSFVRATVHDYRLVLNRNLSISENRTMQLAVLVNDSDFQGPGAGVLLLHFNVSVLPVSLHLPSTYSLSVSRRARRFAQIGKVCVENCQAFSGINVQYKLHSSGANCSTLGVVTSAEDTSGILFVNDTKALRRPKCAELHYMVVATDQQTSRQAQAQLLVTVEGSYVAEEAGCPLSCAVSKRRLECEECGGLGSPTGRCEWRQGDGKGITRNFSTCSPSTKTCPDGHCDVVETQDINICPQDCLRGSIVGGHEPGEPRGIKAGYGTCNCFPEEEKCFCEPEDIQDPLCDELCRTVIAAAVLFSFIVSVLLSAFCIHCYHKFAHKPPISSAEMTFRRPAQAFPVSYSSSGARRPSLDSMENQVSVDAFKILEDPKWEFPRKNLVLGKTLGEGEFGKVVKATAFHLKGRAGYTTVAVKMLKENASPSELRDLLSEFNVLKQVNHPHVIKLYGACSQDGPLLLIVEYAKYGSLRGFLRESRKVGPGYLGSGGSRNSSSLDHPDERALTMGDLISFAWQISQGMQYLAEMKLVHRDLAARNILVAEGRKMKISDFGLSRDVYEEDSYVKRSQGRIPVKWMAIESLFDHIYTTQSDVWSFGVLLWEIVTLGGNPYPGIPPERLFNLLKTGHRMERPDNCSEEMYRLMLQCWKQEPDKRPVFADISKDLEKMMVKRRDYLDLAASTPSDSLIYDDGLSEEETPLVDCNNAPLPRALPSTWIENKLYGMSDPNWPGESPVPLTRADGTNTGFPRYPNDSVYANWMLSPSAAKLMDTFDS
Excerpt: 3) Formulate 2.5× kinase with 1× kinase reaction buffer.

Chain of TRKC (Q16288 32-839): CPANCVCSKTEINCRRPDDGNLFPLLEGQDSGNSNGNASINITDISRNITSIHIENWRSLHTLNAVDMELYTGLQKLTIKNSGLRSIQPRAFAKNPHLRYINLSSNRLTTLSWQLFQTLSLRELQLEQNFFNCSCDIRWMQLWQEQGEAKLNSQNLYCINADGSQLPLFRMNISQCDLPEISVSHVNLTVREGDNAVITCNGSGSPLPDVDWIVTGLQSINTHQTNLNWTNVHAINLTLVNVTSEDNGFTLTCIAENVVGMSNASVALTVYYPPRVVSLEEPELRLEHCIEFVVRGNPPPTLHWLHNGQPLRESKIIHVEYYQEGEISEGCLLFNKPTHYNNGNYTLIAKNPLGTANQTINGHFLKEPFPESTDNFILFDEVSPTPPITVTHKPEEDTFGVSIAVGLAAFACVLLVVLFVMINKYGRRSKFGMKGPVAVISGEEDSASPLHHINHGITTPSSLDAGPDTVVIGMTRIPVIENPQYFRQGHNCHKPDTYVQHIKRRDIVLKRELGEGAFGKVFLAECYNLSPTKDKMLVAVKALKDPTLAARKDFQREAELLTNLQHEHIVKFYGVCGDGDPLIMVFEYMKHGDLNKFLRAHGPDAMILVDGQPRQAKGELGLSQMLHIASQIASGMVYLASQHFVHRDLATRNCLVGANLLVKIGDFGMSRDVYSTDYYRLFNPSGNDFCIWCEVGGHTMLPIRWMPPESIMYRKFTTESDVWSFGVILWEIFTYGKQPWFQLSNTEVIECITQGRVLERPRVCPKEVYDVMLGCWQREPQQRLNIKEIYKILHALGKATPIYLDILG

Structure (SMILES) | IC50 (TRKC) [nM] | Epithelial healing (wound non-healing distance) ([1]; 1% MDI-1228 gel, HFD group) | Area of green lipid droplets in the wound center (Bodipy staining) ([1]; MDI-1228 gel 50 mg every 12 hours, 7 days) | Size of the adipocytes in the wound center (HE staining) ([1]; MDI-1228 gel 50 mg every 12 hours, 7 days, vs. control) | Therapeutic effect on the asthma animal model (lung tissue pathological scoring) [2] | Bronchoalveolar lavage fluid IL-5 expression level [2] | Inflammatory cell count in bronchoalveolar lavage fluid [2] | Lung tissue inflammatory cell infiltration (HE pathology) [2] | Serum IgE expression level [2] | IC50 (RET) [nM] | Lipolysis in the diabetic foot model ([1]; conclusion / summary statement) | Myofibroblasts at the wound ([1]; conclusion / summary statement) | Wound healing ([1]; conclusion / summary statement)
CCc1cc(O)c(F)cc1-c1ccc2c(-c3nc4c([nH]3)CN(C(=O)N3CC[C@H](O)C3)C4)n[nH]c2c1 [MDI-1228, (S)-(2-(6-(2-ethyl-5-fluoro-4-hydroxyphenyl)-1H-indazol-3-yl)-4,6-dihydropyrrolo[3,4-d]imidazol-5-(1H)-yl)(3-hydroxylpyrrolidin-1-yl)ketone] | 0.6 | could effectively promote epithelial healing | significantly reduced | significantly reduced | certain therapeutic effect | significantly reduced the expression of IL-5 | significantly reduced the Inflammatory Cell Count | significantly reduced the lung tissue inflammatory cell infiltration | significantly reduced the expression of IgE | 0.62 | – | – | –
CCc1cc(O)c(F)cc1-c1ccc2c(-c3nc4c([nH]3)CN(C(=O)NCC(O)CCl)C4)n[nH]c2c1 (centres unmarked) [MDI-1288] | 0.59 | – | – | – | certain therapeutic effect | significantly reduced the expression of IL-5 | significantly reduced the Inflammatory Cell Count | significantly reduced the lung tissue inflammatory cell infiltration | significantly reduced the expression of IgE | 3.43 | can significantly promote lipolysis | significantly increase the proportion of myofibroblasts | effectively promote wound healing
